Assay results taken from ChEMBL document CHEMBL3046606, “Synthesis and antifungal activity of novel sulfone derivatives containing 1,3,4-oxadiazole moieties” (Molecules, 2011).

Test system: Cytospora
Assay: Antifungal activity against Cytospora mandshurica at 50 ug/ml after 5 days by poison plate technique
Type: functional
Conditions: 120 h

SMILES | inhibition at 50 µg/mL [%]
COc1ccccc1-c1nnc(S(C)(=O)=O)o1 | 91.3
Cc1ccccc1-c1nnc(S(C)(=O)=O)o1 | 99.3
